Source: ChEMBL document CHEMBL4651402, “Screening of ~5500 FDA-approved drugs and clinical candidates for anti-SARS-CoV-2 activity” (2021)

Test system: SARS-CoV-2
Test: microbe, parasite or virus in culture
Details: Severe acute respiratory syndrome coronavirus 2, Vero C1008, 48 h

With Oc1ccc(Cl)cc1Cc1cc(Cl)ccc1O [DICHLOROPHEN] the IC50 was > 20 µM and the IC50 (read-out: pIC50 (converted)) was > 20 µM.

In the case of NS(=O)(=O)c1cc(Cl)c(Cl)c(S(N)(=O)=O)c1 [DICHLORPHENAMIDE], the IC50 is reported as > 20 µM and the IC50 (read-out: pIC50 (converted)) is reported as > 20 µM.

For COP(=O)(OC)OC=C(Cl)Cl [DICHLORVOS], the IC50 was > 20 µM and the IC50 (read-out: pIC50 (converted)) was > 20 µM.

N#CC(c1ccc(Cl)cc1)c1c(Cl)cc(-n2ncc(=O)[nH]c2=O)cc1Cl (configuration not stated) [DICLAZURIL] was tested, and the IC50 was > 20 µM and the IC50 (read-out: pIC50 (converted)) was > 20 µM.

In the case of O=C(O)Cc1ccccc1Nc1c(Cl)cccc1Cl [DICLOFENAC], the IC50 is reported as > 20 µM and the IC50 (read-out: pIC50 (converted)) is reported as > 20 µM.

With Cc1onc(-c2c(Cl)cccc2Cl)c1C(=O)N[C@@H]1C(=O)N2[C@@H]1SC(C)(C)[C@@H]2C(=O)O [DICLOXACILLIN] the IC50 was > 20 µM and the IC50 (read-out: pIC50 (converted)) was > 20 µM.

COc1c2ccccc2nc2occc12 [DICTAMNINE] was tested, and the IC50 was > 20 µM and the IC50 (read-out: pIC50 (converted)) was > 20 µM.

For O=c1oc2ccccc2c(O)c1Cc1c(O)c2ccccc2oc1=O [DICUMAROL], the IC50 was > 20 µM and the IC50 (read-out: pIC50 (converted)) was > 20 µM.

For CCN(CC)CCOC(=O)C1(C2CCCCC2)CCCCC1 [DICYCLOMINE], the IC50 was > 20 µM and the IC50 (read-out: pIC50 (converted)) was > 20 µM.

C/C=C(/C(=C/C)c1ccc(O)cc1)c1ccc(O)cc1 [DIENESTROL] was tested, and the IC50 was > 20 µM and the IC50 (read-out: pIC50 (converted)) was > 20 µM.

With CCOP(=O)(O)OCC [DIETHYL HYDROGEN PHOSPHATE] the IC50 was > 20 µM and the IC50 (read-out: pIC50 (converted)) was > 20 µM.

In the case of CCN(CC)C(=O)N1CCN(C)CC1 [DIETHYLCARBAMAZINE], the IC50 is reported as > 20 µM and the IC50 (read-out: pIC50 (converted)) is reported as > 20 µM.

With CCN(CC)C(C)C(=O)c1ccccc1 (configuration not stated) [DIETHYLPROPION] the IC50 was > 20 µM and the IC50 (read-out: pIC50 (converted)) was > 20 µM.

With CC/C(=C(/CC)c1ccc(O)cc1)c1ccc(O)cc1 [DIETHYLSTILBESTROL] the IC50 was > 20 µM and the IC50 (read-out: pIC50 (converted)) was > 20 µM.

For CCN(CC)C(=O)c1cccc(C)c1 [DIETHYLTOLUAMIDE], the IC50 was > 20 µM and the IC50 (read-out: pIC50 (converted)) was > 20 µM.

For OCCN1CCCCC1C(c1ccccc1)c1ccccc1 (configuration not stated) [DIFEMETOREX], the IC50 was > 20 µM and the IC50 (read-out: pIC50 (converted)) was > 20 µM.

With N#CC(CCN1CCC(C(=O)O)(c2ccccc2)CC1)(c1ccccc1)c1ccccc1 [DIFENOXIN] the IC50 was > 20 µM and the IC50 (read-out: pIC50 (converted)) was > 20 µM.

For O=C(Cc1ccc(-c2ccccc2)cc1)Nc1ccccn1 [DIFENPIRAMIDE], the IC50 was > 20 µM and the IC50 (read-out: pIC50 (converted)) was > 20 µM.

CC(=O)OCC(=O)[C@@]1(OC(C)=O)[C@@H](C)C[C@H]2[C@@H]3C[C@H](F)C4=CC(=O)C=C[C@]4(C)[C@@]3(F)[C@@H](O)C[C@@]21C [DIFLORASONE DIACETATE] was tested, and the IC50 was > 20 µM and the IC50 (read-out: pIC50 (converted)) was > 20 µM.

In the case of CN1CCN(c2cc3c(cc2F)c(=O)c(C(=O)O)cn3-c2ccc(F)cc2)CC1 [DIFLOXACIN], the IC50 is reported as > 20 µM and the IC50 (read-out: pIC50 (converted)) is reported as > 20 µM.

For CCCC(=O)O[C@]1(C(=O)COC(C)=O)CC[C@H]2[C@@H]3C[C@H](F)C4=CC(=O)C=C[C@]4(C)[C@@]3(F)[C@@H](O)C[C@@]21C [DIFLUPREDNATE], the IC50 was > 20 µM and the IC50 (read-out: pIC50 (converted)) was > 20 µM.

For O=C1c2ccccc2CN2C(=O)c3ccccc3CN12 [DIFTALONE], the IC50 was > 20 µM and the IC50 (read-out: pIC50 (converted)) was > 20 µM.

In the case of C[C@H]1O[C@@H](O[C@H]2[C@@H](O)C[C@H](O[C@H]3[C@@H](O)C[C@H](O[C@H]4CC[C@@]5(C)[C@H](CC[C@@H]6[C@@H]5CC[C@]5(C)[C@@H](C7=CC(=O)OC7)CC[C@]65O)C4)O[C@@H]3C)O[C@@H]2C)C[C@H](O)[C@@H]1O [DIGITOXIN], the IC50 is reported as > 20 µM and the IC50 (read-out: pIC50 (converted)) is reported as > 20 µM.

C[C@H]1O[C@@H](O[C@H]2[C@@H](O)C[C@H](O[C@H]3[C@@H](O)C[C@H](O[C@H]4CC[C@@]5(C)[C@H](CC[C@@H]6[C@@H]5C[C@@H](O)[C@]5(C)[C@@H](C7=CC(=O)OC7)CC[C@]65O)C4)O[C@@H]3C)O[C@@H]2C)C[C@H](O)[C@@H]1O [DIGOXIN] was tested, and the IC50 was > 20 µM and the IC50 (read-out: pIC50 (converted)) was > 20 µM.

With N/N=c1\[nH][nH]/c(=N\N)c2ccccc12 [DIHYDRALAZINE] the IC50 was > 20 µM and the IC50 (read-out: pIC50 (converted)) was > 20 µM.

For CC(C)[C@@]1(NC(=O)[C@@H]2C[C@@H]3c4cccc5[nH]cc(c45)C[C@H]3N(C)C2)O[C@@]2(O)[C@@H]3CCCN3C(=O)[C@H](Cc3ccccc3)N2C1=O [DIHYDROERGOCRISTINE], the IC50 was > 20 µM and the IC50 (read-out: pIC50 (converted)) was > 20 µM.
